{"source": "ChEMBL document CHEMBL5120768", "about": "“Discovery of Anticancer Agents of Diverse Natural Origin” (J Nat Prod, 2022)", "key": {"A2780 [1]": {"tested_on": "A2780", "test": "Antiproliferative activity against human A2780 cells", "assay_type": "functional, cell-based"}, "MCF7 [2]": {"tested_on": "MCF7", "test": "Antiproliferative activity against human MCF7 cells", "assay_type": "functional, cell-based"}, "MDA-MB-435 [3]": {"tested_on": "MDA-MB-435", "test": "Antiproliferative activity against human MDA-MB-435 cells", "assay_type": "functional, cell-based"}, "MDA-MB-231 [4]": {"tested_on": "MDA-MB-231", "test": "Antiproliferative activity against human MDA-MB-231 cells", "assay_type": "functional, cell-based"}, "[5]": {"test": "Antiproliferative activity against human CCD-112CoN cells after 72 hrs by SRB assay", "assay_type": "functional, cell-based"}, "A2780 [6]": {"tested_on": "A2780", "test": "Antiproliferative activity against human A2780 cells by SRB assay", "assay_type": "functional, cell-based"}, "MCF7 [7]": {"tested_on": "MCF7", "test": "Antiproliferative activity against human MCF7 cells by SRB assay", "assay_type": "functional, cell-based"}, "[8]": {"test": "Antiproliferative activity against human PC-3 cells after 3 days by SRB assay", "assay_type": "functional, cell-based"}, "HT-29 [9]": {"tested_on": "HT-29", "test": "Antiproliferative activity against human HT-29 cells after 3 days by SRB assay", "assay_type": "functional, cell-based", "conditions": "HT-29, 72 h"}, "MDA-MB-435 [10]": {"tested_on": "MDA-MB-435", "test": "Antiproliferative activity against human MDA-MB-435 cells after 72 hrs by CellTiter 96 AQueous One Solution Cell Proliferation assay", "assay_type": "functional, cell-based", "conditions": "MDA-MB-435, 72 h"}, "HT-29 [11]": {"tested_on": "HT-29", "test": "Antiproliferative activity against human HT-29 cells after 72 hrs by CellTiter 96 AQueous One Solution Cell Proliferation assay", "assay_type": "functional, cell-based", "conditions": "HT-29, 72 h"}, "OVCAR-3": {"tested_on": "OVCAR-3", "test": "Antiproliferative activity against human OVCAR-3 cells after 72 hrs by CellTiter 96 AQueous One Solution Cell Proliferation assay", "assay_type": "functional, cell-based", "conditions": "OVCAR-3, 72 h"}, "MDA-MB-231 [12]": {"tested_on": "MDA-MB-231", "test": "Antiproliferative activity against human MDA-MB-231 cells after 72 hrs by CellTiter 96 AQueous One Solution Cell Proliferation assay", "assay_type": "functional, cell-based", "conditions": "MDA-MB-231, 72 h"}, "20S proteasome": {"biological_target": "20S proteasome", "test": "Inhibition of chymotrypsin-like activity of human erythrocytes 20S proteasome using Suc-LLVY-AMC as substrate and measured by fluorescence assay"}}, "data": [{"smiles": "CC(=O)C1=C(O)C=C2Oc3c(C(C)=O)c(O)c(C)c(O)c3C2(C)C1=O", "note": "(stereo not drawn)", "values": [{"measurement": "IC50", "setting": "A2780 [1]", "result": 3800, "unit": "nM"}, {"measurement": "IC50", "setting": "MCF7 [2]", "result": 6800, "unit": "nM"}]}, {"smiles": "CCCC[C@H]1CCCC[C@H](C)[C@@H](O)c2cc(O)c(c(O)c2)[C@@H](CCCC)CCCC[C@H](C)[C@@H](O[C@@H]2OC[C@@H](O)[C@@H](O)[C@H]2O)c2cc(O)c1c(O)c2", "values": [{"measurement": "IC50", "setting": "MDA-MB-435 [3]", "result": 600, "unit": "nM"}, {"measurement": "IC50", "setting": "MDA-MB-231 [4]", "result": 600, "unit": "nM"}]}, {"smiles": "CCCC[C@H]1CCCC[C@H](C)Cc2cc(O)c(c(O)c2)[C@@H](CCCC)CCCC[C@H](C)[C@@H](O[C@@H]2OC[C@@H](O)[C@@H](O)[C@H]2O)c2cc(O)c1c(O)c2", "values": [{"measurement": "IC50", "setting": "MDA-MB-435 [3]", "result": 600, "unit": "nM"}, {"measurement": "IC50", "setting": "MDA-MB-231 [4]", "result": 600, "unit": "nM"}]}, {"smiles": "C[C@H]1O[C@@H](O[C@H]2CC[C@]3(C)[C@H]4CC[C@]5(C)[C@@H](C6=CC(=O)OC6)CC[C@]5(O)[C@@H]4CC[C@]3(O)C2)C[C@H](O)[C@@H]1O[C@@H]1O[C@H](CO)[C@@H](O)[C@H](O)[C@H]1O", "values": [{"measurement": "IC50", "setting": "[5]", "result": 2700, "unit": "nM"}]}, {"smiles": "COc1cc(=O)oc(/C=C/C=C/C=C/C(C)=C/[C@]2(C)O[C@H](C)[C@](C)(O)[C@@H]2O)c1C", "values": [{"measurement": "IC50", "setting": "A2780 [6]", "result": 8200, "unit": "nM"}, {"measurement": "IC50", "setting": "MCF7 [7]", "result": 6000, "unit": "nM"}]}, {"smiles": "COc1ccc([C@@]23Oc4cc5c(c(OC)c4[C@]2(O)[C@H](O)[C@H](C(N)=O)[C@H]3c2ccccc2)[C@H]2OC[C@H]([C@H](O)CO)O[C@H]2O5)cc1", "values": [{"measurement": "IC50", "setting": "[8]", "result": "> 10000", "unit": "nM"}, {"measurement": "IC50", "setting": "HT-29 [9]", "result": "> 10000", "unit": "nM"}]}, {"smiles": "CO[C@H]1[C@H](O[C@H]2CC[C@]3(C=O)[C@H]4CC[C@]5(C)[C@](O)(C6=CC(=O)OC6)CC[C@]5(O)[C@@H]4CC[C@]3(O)C2)O[C@H](C)[C@H](O)[C@@H]1OC", "values": [{"measurement": "IC50", "setting": "MDA-MB-435 [10]", "result": "> 10000", "unit": "nM"}, {"measurement": "IC50", "setting": "HT-29 [11]", "result": "> 10000", "unit": "nM"}, {"measurement": "IC50", "setting": "OVCAR-3", "result": "> 10000", "unit": "nM"}]}, {"smiles": "CCCC[C@H]1CCCC[C@H](C)[C@@H](O[C@H]2OC[C@@H](O)[C@@H](O)[C@H]2O)c2cc(O)c(c(O)c2)[C@@H](CCCC)CCCC[C@H](C)[C@@H](O[C@@H]2OC[C@@H](O)[C@@H](O)[C@H]2O)c2cc(O)c1c(O)c2", "values": [{"measurement": "IC50", "setting": "MDA-MB-435 [3]", "result": 600, "unit": "nM"}, {"measurement": "IC50", "setting": "MDA-MB-231 [4]", "result": 600, "unit": "nM"}]}, {"smiles": "C[C@@H]1CCCCC[C@H](CCCCO)c2c(O)cc(cc2O)[C@H](C)CCCCC[C@H](CCCO)c2c(O)cc1cc2O", "values": [{"measurement": "IC50", "setting": "MDA-MB-231 [12]", "result": 1000, "unit": "nM"}]}, {"smiles": "CCCCC(Cl)CCCC[C@H](C)[C@@H](O[C@@H]1OC[C@@H](O)[C@@H](O)[C@H]1O)c1cc(O)c([C@@H](CCCC)CCCC[C@H](O)[C@@H](OC(C)=O)c2cc(O)cc(O)c2)c(O)c1", "note": "(stereo partly drawn)", "values": [{"measurement": "IC50", "setting": "MDA-MB-435 [3]", "result": "> 25000", "unit": "nM"}, {"measurement": "IC50", "setting": "MDA-MB-231 [4]", "result": "> 25000", "unit": "nM"}]}, {"smiles": "CCCC[C@H]1CCCCC[C@@H](C)c2cc(O)c(c(O)c2)[C@@H](CCC)CCCCC[C@@H](C)c2cc(O)c1c(O)c2", "values": [{"measurement": "IC50", "setting": "MDA-MB-231 [12]", "result": 1000, "unit": "nM"}]}, {"smiles": "CCC[C@H]1CCCCC[C@@H](C)c2cc(O)c(c(O)c2)[C@@H](CCCCO)CCCCC[C@@H](C)c2cc(O)c1c(O)c2", "values": [{"measurement": "IC50", "setting": "MDA-MB-231 [12]", "result": 1000, "unit": "nM"}]}, {"smiles": "CC[C@H](C)[C@@H]1NC(=O)[C@@H](CCC(N)=O)NC(=O)CNC(=O)[C@H](Cc2ccc(O)cc2)/N=C\\[C@H](CC(C)C)NC(=O)[C@H](C(C)C)NC(=O)[C@H](CO)NC1=O", "values": [{"measurement": "IC50", "setting": "20S proteasome", "result": 96, "unit": "nM"}]}, {"smiles": "COc1ccc([C@@]23Oc4cc(OC)cc(OC)c4[C@]2(O)[C@H](O)[C@H](C(N)=O)[C@H]3c2ccccc2)cc1", "note": "[DIDESMETHYLROCAGLAMIDE]", "values": [{"measurement": "IC50", "setting": "HT-29 [9]", "result": 21, "unit": "nM"}]}]}
